These compounds were tested on Human osteosarcoma U2OS cells (assay: Assay to measure lysosome and autolysosome (acidic vesicle) formation in U2OS cells). Conditions: Homo sapiens, concentration of 0.8 μM, read-out: Activity (percentage increase in acidic vesicle formation over the DMSO-treated control).
Type: cell-based
Description: Lysosomes play a fundamental role in the autophagic pathway by fusing with autophagosomes and creating ‘autolysosomes’ in order to digest their contents. Stimulation of lysosome and autolysosome formation by a compound is indicative of a stimulation of autophagy. The ability of compounds to stimulate lysosome and autolysosome formation, and thus autophagy, in live cells was assessed via fluorescent microscopy using various fluorescent stains for labelling and tracking acidic organelles (including lysosomes and autolysosomes) such as: LysoView™ 650 (70059 and 70059-T, Biotium), Lyso View™633 (70058 and 70058-T, Biotium) and LysoTracker™ Deep Red (L12492, ThermoFisher Scientific). The cellular phenotype was quantitatively assessed for the induction of acidic vesicle formation and compared to a non-treated control, thus providing a measure of the ability of the compound under investigation to stimulate autophagy.
Representative procedure using LysoView™ 633 dye or LysoTracker™ Deep Red dye: Human osteosarcoma U2OS cells (40,000 cells/well) were seeded in a 24 well glass bottom plate (Sensoplate, Greiner Bio-One) and were incubated overnight in a humidified atmosphere at 37° C. and 5% CO2. Cells were grown in DMEM (Gibco) supplemented with 10% Fetal Bovine Serum (FBS) and 100 units/ml penicillin and 100 μg/ml streptomycin (Invitrogen). After the attachment period, cells were treated with different compounds of interest (at various concentrations in DMSO) or DMSO (non-treated control) in cell culture medium and were incubated for 24 hours. Compound-containing medium was removed and cells were incubated with pre-warmed cell culture medium containing 1× Lyso View™ 633 (70058 and 70058-T, Biotium) or 50 nM LysoTracker™ Deep Red (L12492, ThermoFisher Scientific) for 45 minutes at 37° C. Finally, cell nuclei were stained for 10 minutes using Hoechst 33342 (1 μg/mL) and then the medium was replaced with fresh medium. The 24 well plate was then fitted into a heated stage on the microscope and cells maintained at 37° C. Images were captured using appropriate filter set for Cy5 and DAPI detection with the EVOS M7000 Microscope (ThermoFisher Scientific). The cellular phenotype was visually assessed for the induction of acidic vesicle formation relative to the non-treated control; multiple images were acquired and analysed using ImageJ or Cell Profiler.

SMILES | activation at 0.8 µM
CCN1CCC(N(C)C(=O)c2csc(-c3cnn(-c4cnccn4)c3)n2)CC1 [Compound 233, N-(1-ethylpiperidin-4-yl)-N-methyl-2-[1-(pyrazin-2-yl)-1H-pyrazol-4-yl]-1,3-thiazole-4-carboxamide] | 50 to 100%
CCN1CCC(NC(=O)c2csc(-c3cnn(-c4cccnn4)c3)n2)CC1 [Compound 231, N-(1-ethylpiperidin-4-yl)-2-[1-(pyridazin-3-yl)-1H-pyrazol-4-yl]-1,3-thiazole-4-carboxamide] | 10 to 30%
C[C@H]1CN(C(=O)c2csc(-c3cnn(-c4ncccn4)c3)n2)CCN1 [Compound 249, 2-(4-{4-[(3S)-3-methylpiperazine-1-carbonyl]-1,3-thiazol-2-yl}-1H-pyrazol-1-yl)pyrimidine] | 10 to 30%
NS(=O)(=O)N1CCN(C(=O)c2ccc(-c3cnn(-c4ccccc4C(F)(F)F)c3)[nH]2)CC1 [Compound 216, 4-(5-{1-[2-(trifluoromethyl)phenyl]-1H-pyrazol-4-yl}-1H-pyrrole-2-carbonyl)piperazine-1-sulfonamide] | 10 to 30%
CCN1CCC(NC(=O)c2csc(-c3cnn(-c4ccncc4)c3)n2)CC1 [Compound 228, N-(1-ethylpiperidin-4-yl)-2-[1-(pyridin-4-yl)-1H-pyrazol-4-yl]-1,3-thiazole-4-carboxamide] | 10 to 30%
CCN1CCC(N(C)C(=O)c2csc(-c3cnn(-c4cccnc4)c3)n2)CC1 [Compound 224, N-(1-ethylpiperidin-4-yl)-N-methyl-2-[1-(pyridin-3-yl)-1H-pyrazol-4-yl]-1,3-thiazole-4-carboxamide] | 50 to 100%
CN1CCC[C@H](NC(=O)c2csc(-c3cnn(-c4ccccc4)c3)n2)C1 [Compound 208, N-[(3S)-1-methylpiperidin-3-yl]-2-(1-phenyl-1H-pyrazol-4-yl)-1,3-thiazole-4-carboxamide] | 10 to 30%
CCN1C[C@@H]2C[C@H]1CC2N(C)C(=O)c1csc(-c2cnn(-c3ccccc3)c2)n1 (stereo partly drawn) [Compound 245, N-[(1S,4S)-2-ethyl-2-azabicyclo[2.2.1]heptan-5-yl]-N-methyl-2-(1-phenyl-1H-pyrazol-4-yl)-1,3-thiazole-4-carboxamide] | 10 to 30%
O=C(NCCN1CCCCC1)c1csc(-c2cnn(-c3ccccc3)c2)n1 [Compound 202, 2-(1-phenyl-1H-pyrazol-4-yl)-N-[2-(piperidin-1-yl)ethyl]-1,3-thiazole-4-carboxamide] | 30 to 50%
CCN1C[C@H]2C[C@@H]1CC2NC(=O)c1csc(-c2cnn(-c3ccccc3)c2)n1 (stereo partly drawn) [Compound 244, N-[(1R,4R)-2-ethyl-2-azabicyclo[2.2.1]heptan-5-yl]-2-(1-phenyl-1H-pyrazol-4-yl)-1,3-thiazole-4-carboxamide] | 10 to 30%
CN(CCN(C)C1CCCCC1)C(=O)c1csc(-c2cnn(-c3ccccc3)c2)n1 [Compound 190, N-{2-[cyclohexyl(methyl)amino]ethyl}-N-methyl-2-(1-phenyl-1H-pyrazol-4-yl)-1,3-thiazole-4-carboxamide] | 10 to 30%
CCN1CCC(NC(=O)c2csc(-c3cnn(-c4cccnc4)c3)n2)CC1 [Compound 225, N-(1-ethylpiperidin-4-yl)-2-[1-(pyridin-3-yl)-1H-pyrazol-4-yl]-1,3-thiazole-4-carboxamide] | 10 to 30%
CCN1CCC(N(C)C(=O)c2csc(-c3cnn(-c4ncccn4)c3)n2)CC1 [Compound 250, N-(1-ethylpiperidin-4-yl)-N-methyl-2-[1-(pyrimidin-2-yl)-1H-pyrazol-4-yl]-1,3-thiazole-4-carboxamide] | 10 to 30%
O=C(NCCN1CCOCC1)c1csc(-c2cnn(-c3ccccc3)c2)n1 [Compound 204, N-[2-(morpholin-4-yl)ethyl]-2-(1-phenyl-1H-pyrazol-4-yl)-1,3-thiazole-4-carboxamide] | 10 to 30%
CCN1C[C@@H]2C[C@H]1CC2NC(=O)c1csc(-c2cnn(-c3ccccc3)c2)n1 (stereo partly drawn) [Compound 246, N-[(1S,4S)-2-ethyl-2-azabicyclo[2.2.1]heptan-5-yl]-2-(1-phenyl-1H-pyrazol-4-yl)-1,3-thiazole-4-carboxamide] | 10 to 30%
C[C@H]1CN(C(=O)c2csc(-c3cnn(-c4cnccn4)c3)n2)CCN1 [Compound 232, 2-(4-{4-[(3S)-3-methylpiperazine-1-carbonyl]-1,3-thiazol-2-yl}-1H-pyrazol-1-yl)pyrazine] | 50 to 100%
C[C@H]1CN(C(=O)c2csc(-c3cnn(-c4cccnc4)c3)n2)CCN1 [Compound 223, (3S)-3-methyl-1-{2-[1-(pyridin-3-yl)-1H-pyrazol-4-yl]-1,3-thiazole-4-carbonyl}piperazine] | 10 to 30%
CCN1CCN(C(=O)c2csc(-c3cnn(-c4ccccc4)c3)n2)CC1 [Compound 236, 1-ethyl-4-[2-(1-phenyl-1H-pyrazol-4-yl)-1,3-thiazole-4-carbonyl]piperazine] | 10 to 30%
CCN1CCC(NC(=O)c2ccc(-c3cnn(-c4ccccc4)c3)[nH]2)CC1 [Compound 214, N-(1-ethylpiperidin-4-yl)-5-(1-phenyl-1H-pyrazol-4-yl)-1H-pyrrole-2-carboxamide] | 10 to 30%
CC1(C)CN(C(=O)c2csc(-c3cnn(-c4ccccc4)c3)n2)CCN1 [Compound 235, 3,3-dimethyl-1-[2-(1-phenyl-1H-pyrazol-4-yl)-1,3-thiazole-4-carbonyl]piperazine] | 30 to 50%
CCN1CCC(N(CC)C(=O)c2csc(-c3cnn(-c4ccccc4)c3)n2)CC1 [Compound 219, N-ethyl-N-(1-ethylpiperidin-4-yl)-2-(1-phenyl-1H-pyrazol-4-yl)-1,3-thiazole-4-carboxamide] | > 100%
CCN1CCC(NC(=O)c2csc(-c3cnn(-c4cnccn4)c3)n2)CC1 [Compound 234, N-(1-ethylpiperidin-4-yl)-2-[1-(pyrazin-2-yl)-1H-pyrazol-4-yl]-1,3-thiazole-4-carboxamide] | 30 to 50%
C[C@H]1CN(C(=O)c2csc(-c3cnn(-c4cccnn4)c3)n2)CCN1 [Compound 229, 3-(4-{4-[(3S)-3-methylpiperazine-1-carbonyl]-1,3-thiazol-2-yl}-1H-pyrazol-1-yl)pyridazine] | 30 to 50%
CCN1CCC(NC(=O)c2csc(-c3cnn(-c4ccc(F)cc4)c3)n2)CC1 [Compound 213, N-(1-ethylpiperidin-4-yl)-2-[1-(4-fluorophenyl)-1H-pyrazol-4-yl]-1,3-thiazole-4-carboxamide] | 10 to 30%

Same assay, conditions: concentration of 10 μM, 24 hours

SMILES | acidic vesicle formation relative to a DMSO-treated control
C[C@H]1CN(C(=O)c2csc(-c3cnn(-c4ccncc4)c3)n2)CCN1 [Compound 226, (3S)-3-methyl-1-{2-[1-(pyridin-4-yl)-1H-pyrazol-4-yl]-1,3-thiazole-4-carbonyl}piperazine] | only a slight increase
CCN1CCC(N(C)C(=O)c2csc(-c3cnn(-c4ccncc4)c3)n2)CC1 [Compound 227, N-(1-ethylpiperidin-4-yl)-N-methyl-2-[1-(pyridin-4-yl)-1H-pyrazol-4-yl]-1,3-thiazole-4-carboxamide] | only a slight increase
C[C@H]1CN(C(=O)c2csc(-c3cnn(-c4cnccn4)c3)n2)CCN1 [Compound 232, 2-(4-{4-[(3S)-3-methylpiperazine-1-carbonyl]-1,3-thiazol-2-yl}-1H-pyrazol-1-yl)pyrazine] | only a slight increase
C[C@H]1CN(C(=O)c2csc(-c3cnn(-c4cccnc4)c3)n2)CCN1 [Compound 223, (3S)-3-methyl-1-{2-[1-(pyridin-3-yl)-1H-pyrazol-4-yl]-1,3-thiazole-4-carbonyl}piperazine] | only a slight increase

Source: patent US20250034127A1, “AUTOPHAGY INDUCING COMPOUNDS AND USES THEREOF, IN PARTICULAR FOR DISEASES OF THE CNS” (Samsara Therapeutics Inc., priority 2021, published 2025)
